Laboratory results: US10660965B2, “Methods of enhancing drug delivery and effectiveness of therapeutic agents” (priority 2010, dated 2020)

System: Patient-derived low passage pancreatic tumor xenografts
Assay: Tumor regression in patient-derived pancreatic tumor xenografts
Format: in vivo, nude mice
Conditions: 11 xenograft cases; ABI 30 mg/kg i.v. daily x5, GEM 100 mg/kg i.p. twice a week for 4 weeks
Protocol: Eleven Patient-derived low passage pancreatic tumor xenografts were implanted (s.c) in nude mice. Mice with tumor size of ˜200 mm3 were randomized to four treatment groups (7-10 tumors/group) and treated with 1) Vehicle; 2) Abraxane® (ABI) 30 mg/kg once daily i.v for five consecutive days; 3) Gemcitabine (GEM) 100 mg/kg twice a week for 4 weeks i.p and 4) GEM+ABI in the above mentioned dose and frequency for 4 weeks. Tumor size was measured twice per week using a digital caliper. Number of tumors that regressed more than 50% of its initial size in each tumor xenografts were noted. Extent of stromal desmoplasia and endothelial cell content in control and treated xenografts were determined by Masson's Trichrome staining, IHC and qRTPCR.

Nc1ccn([C@@H]2O[C@H](CO)[C@@H](O)C2(F)F)c(=O)n1 [GEM, gemcitabine]
cases that produced >50% regression of tumor size: 2 of 11
